Key:
Assay in all cases: relative viability (nuclei count vs DMSO), 5 days (fraction); higher = more cells survive
Quizartinib + Bortezomib = compound: CC(C)(C)c1cc(NC(=O)Nc2ccc(-c3cn4c(n3)sc3cc(OCCN5CCOCC5)ccc34)cc2)no1 [Quizartinib] + CC(C)C[C@H](NC(=O)[C@H](Cc1ccccc1)NC(=O)c1cnccn1)B(O)O [Bortezomib] (partner 0.002 µM)
Summary of the method: (§1)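 Dosing by pin tool came one day after lung cancer cell lines were seeded in 1536-well plates, using either one drug or a fixed anchor-drug dose plus five library-drug doses (not always all listed) in √10 steps. After 5 days, nuclei were counted on 4× images. Relative viability is treated-well nuclei count divided by vehicle-well nuclei count, and values are medians of duplicate plates.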

Quizartinib + Olaparib = compound: CC(C)(C)c1cc(NC(=O)Nc2ccc(-c3cn4c(n3)sc3cc(OCCN5CCOCC5)ccc34)cc2)no1 [Quizartinib] + O=C(c1cc(Cc2n[nH]c(=O)c3ccccc23)ccc1F)N1CCN(C(=O)C2CC2)CC1 [Olaparib] (partner 8 µM)
Summary of the method: as §1

Quizartinib + Tozasertib = compound: CC(C)(C)c1cc(NC(=O)Nc2ccc(-c3cn4c(n3)sc3cc(OCCN5CCOCC5)ccc34)cc2)no1 [Quizartinib] + Cc1cc(Nc2cc(N3CCN(C)CC3)nc(Sc3ccc(NC(=O)C4CC4)cc3)n2)n[nH]1 [Tozasertib] (partner 0.1 µM)
Summary of the method: as §1

Quizartinib + Lapatinib = compound: CC(C)(C)c1cc(NC(=O)Nc2ccc(-c3cn4c(n3)sc3cc(OCCN5CCOCC5)ccc34)cc2)no1 [Quizartinib] + CS(=O)(=O)CCNCc1ccc(-c2ccc3ncnc(Nc4ccc(OCc5cccc(F)c5)c(Cl)c4)c3c2)o1 [Lapatinib] (partner 2 µM)
Summary of the method: as §1

| Cell Line | relative viability (Quizartinib + Bortezomib; first compound 0.001 µM) | relative viability (Quizartinib + Bortezomib; first compound 0.003162 µM) | relative viability (Quizartinib + Bortezomib; first compound 0.01 µM) | relative viability (Quizartinib + Bortezomib; first compound 0.03162 µM) | relative viability (Quizartinib + Bortezomib; first compound 0.1 µM) | relative viability (Quizartinib + Olaparib; first compound 0.001 µM) | relative viability (Quizartinib + Olaparib; first compound 0.003162 µM) | relative viability (Quizartinib + Olaparib; first compound 0.01 µM) | relative viability (Quizartinib + Olaparib; first compound 0.03162 µM) | relative viability (Quizartinib + Olaparib; first compound 0.1 µM) | relative viability (Quizartinib + Tozasertib; first compound 0.001 µM) | relative viability (Quizartinib + Tozasertib; first compound 0.003162 µM) | relative viability (Quizartinib + Tozasertib; first compound 0.01 µM) | relative viability (Quizartinib + Tozasertib; first compound 0.03162 µM) | relative viability (Quizartinib + Tozasertib; first compound 0.1 µM) | relative viability (Quizartinib + Lapatinib; first compound 0.001 µM) | relative viability (Quizartinib + Lapatinib; first compound 0.003162 µM) | relative viability (Quizartinib + Lapatinib; first compound 0.01 µM) | relative viability (Quizartinib + Lapatinib; first compound 0.03162 µM) | relative viability (Quizartinib + Lapatinib; first compound 0.1 µM) |
| --- | --- | --- | --- | --- | --- | --- | --- | --- | --- | --- | --- | --- | --- | --- | --- | --- | --- | --- | --- | --- |
| HCC-78 | 0.435 | 0.477 | 0.546 | 0.511 | 0.448 | 0.732 | 0.753 | 0.899 | 0.706 | 0.92 | 0.453 | 0.325 | 0.365 | 0.368 | 0.384 | 0.869 | 0.901 | 0.576 | 0.702 | 0.703 |
| RERF-LC-KJ | 1.04 | 1.15 | 1.26 | 1.1 | 1.06 | 0.931 | 0.807 | 0.938 | 0.545 | 0.972 | 0.47 | 0.445 | 0.53 | 0.248 | 0.337 | 0.883 | 0.766 | 0.864 | 0.864 | 0.777 |
| NCI-H1734 | 0.862 | 0.769 | 1.05 | 0.776 | 0.944 | 0.587 | 0.557 | 0.625 | 0.605 | 0.642 | 0.237 | 0.288 | 0.267 | 0.274 | 0.271 | 0.869 | 1.1 | 1.08 | 0.873 | 0.998 |
| 201T | 1.09 | 1.09 | 1.1 | 1.09 | 1.12 | 0.581 | 0.802 | 0.833 | 0.87 | 0.857 | 0.878 | 0.858 | 0.995 | 0.887 | 0.854 | 1.09 | 1.04 | 1.07 | 1.06 | 1.05 |
| HCC-827 | 0.998 | 1.11 | 1.02 | 1.06 | 1.01 | 0.653 | 0.556 | – | 0.616 | 0.697 | 0.356 | 0.516 | 0.458 | 0.405 | 0.411 | 0.196 | 0.22 | 0.19 | 0.164 | 0.214 |
| LCLC-97TM1 | – | 0.689 | 0.811 | – | 0.527 | 0.333 | 0.332 | 0.406 | 0.467 | 0.417 | 0.183 | 0.218 | 0.172 | 0.248 | 0.207 | – | 0.862 | 0.527 | 0.848 | 1.43 |
| NCI-H838 | 0.458 | 0.763 | 0.65 | 0.926 | 0.534 | 0.641 | 0.683 | 0.77 | 0.678 | 0.361 | 0.249 | 0.22 | 0.3 | 0.276 | 0.22 | 0.816 | 1.11 | 0.784 | 0.675 | 0.605 |
| NCI-H1437 | 0.354 | 0.492 | 0.393 | 0.49 | 0.255 | 0.613 | 0.587 | 0.627 | 0.584 | 0.468 | 0.372 | 0.399 | 0.422 | 0.367 | 0.329 | 0.738 | 0.827 | 0.764 | 0.45 | 0.543 |
| LXF-289 | 0.868 | 0.955 | 0.983 | 0.949 | 1.03 | 0.901 | 0.987 | 1.16 | 1 | 0.992 | 0.16 | 0.207 | 0.196 | 0.21 | 0.247 | 0.788 | 0.838 | 0.932 | 0.923 | 0.892 |
| LU99A | 0.837 | 1.08 | 1.3 | 1.19 | 1.2 | 0.253 | 0.251 | 0.293 | 0.276 | 0.238 | 0.288 | 0.274 | 0.262 | 0.259 | 0.272 | 0.857 | 0.901 | 0.999 | 1 | 0.968 |
| HOP-62 | 0.564 | 0.72 | 0.73 | 0.517 | 0.749 | – | 0.322 | 0.54 | 0.619 | 0.449 | 0.358 | 0.363 | 0.416 | 0.352 | 0.33 | 0.745 | 0.957 | 0.993 | 0.978 | 0.888 |
| NCI-H1915 | 0.924 | 0.836 | 0.916 | 1.06 | 1.01 | 0.257 | 0.263 | 0.287 | 0.261 | 0.253 | 0.419 | 0.427 | 0.42 | 0.401 | 0.389 | 0.939 | 0.931 | 0.938 | 0.965 | 1.04 |
| SW 1573 | 0.71 | 0.804 | 1.24 | 0.684 | 1.01 | 0.292 | 0.538 | 0.572 | – | 0.581 | 0.163 | 0.175 | 0.225 | – | 0.265 | 1.03 | 1.09 | 1.24 | 1.01 | 1.21 |
| HCC-44 | 0.878 | 0.937 | 0.941 | 0.838 | 0.775 | 0.934 | 0.982 | 1.03 | 0.981 | 0.952 | – | 0.867 | 0.849 | 0.645 | 0.689 | 0.776 | 1.02 | 0.991 | 1.09 | 0.938 |
| HARA | 0.931 | 1.11 | 1.15 | 1.07 | 1.17 | 0.854 | 0.803 | 0.68 | 0.996 | 0.759 | – | 0.101 | 0.102 | 0.0944 | 0.122 | 0.748 | 0.551 | 0.827 | 1.08 | 0.736 |
| HCC-366 | 0.989 | 0.974 | 1.13 | 0.967 | 1.01 | 0.324 | 0.369 | 0.332 | 0.328 | 0.389 | 0.11 | 0.0914 | 0.0628 | 0.0575 | 0.0582 | 0.931 | 0.992 | 1.06 | 0.897 | 1 |
| ABC-1 | 0.283 | 0.232 | 0.299 | 0.28 | 0.262 | – | 0.807 | 0.845 | 0.911 | 0.956 | 0.184 | 0.179 | 0.172 | 0.205 | 0.183 | 1.11 | – | 1.17 | 1.02 | 1.29 |
| HCC-15 | 0.759 | 0.992 | 0.987 | 0.984 | 0.988 | 0.684 | 0.685 | 0.676 | 0.641 | 0.69 | – | 0.429 | 0.602 | 0.29 | 0.2 | 0.652 | 0.795 | 0.859 | 0.791 | 0.767 |
| NCI-H1650 | 0.139 | 0.184 | 0.207 | – | 0.191 | 0.793 | 0.816 | 0.607 | – | 0.737 | 0.42 | 0.366 | 0.369 | – | 0.238 | 0.189 | 0.782 | 0.579 | – | 0.686 |
| NCI-H1666 | 0.738 | 0.753 | 0.823 | 0.511 | 0.813 | 0.704 | 0.713 | 0.662 | 0.678 | 0.853 | 0.56 | 0.594 | 0.612 | 0.462 | 0.557 | 0.691 | 0.634 | 0.727 | 0.38 | 0.639 |
| EMC-BAC-2 | 0.986 | 1.14 | 0.985 | 0.857 | 1.05 | 0.468 | 0.441 | 0.524 | – | 0.536 | 0.262 | 0.259 | 0.281 | – | 0.282 | 0.809 | 0.94 | 0.823 | 0.671 | 0.946 |
| NCI-H460 | 0.881 | 0.987 | 1.24 | – | 0.68 | – | 0.377 | 0.573 | 0.336 | 0.429 | 0.4 | 0.401 | 0.394 | 0.142 | 0.0635 | 0.924 | 1.03 | 1.26 | – | 0.205 |
| NCI-H2405 | 0.689 | 1.01 | 1.01 | 1.01 | 0.984 | 0.851 | 0.807 | 0.92 | 0.832 | 0.902 | 0.742 | 0.722 | 0.726 | 0.738 | 0.68 | 1.11 | 1.16 | 0.969 | 0.934 | 1.3 |
| SK-LU-1 | 0.95 | 1.12 | 1.24 | 0.969 | 1.2 | 0.462 | 0.469 | 0.458 | 0.467 | 0.432 | 0.268 | 0.303 | 0.378 | 0.319 | 0.309 | 0.704 | 0.867 | 1.3 | 0.774 | 0.725 |
| NCI-H727 | 0.656 | – | 0.955 | 0.767 | 0.833 | 0.66 | 0.678 | 0.843 | 0.708 | 0.769 | 0.594 | 0.654 | 0.557 | 0.648 | 0.7 | 0.876 | – | 0.929 | 0.875 | 0.725 |
| NCI-H1975 | 0.333 | 0.374 | 0.389 | 0.368 | 0.497 | 0.813 | 0.77 | 0.87 | 0.784 | 0.791 | 0.71 | 0.809 | 0.488 | 0.372 | 0.16 | 0.746 | 0.894 | 0.847 | 0.864 | 1.18 |
| BEN | 0.583 | 0.677 | 0.703 | 0.766 | 0.83 | 1.11 | 1.02 | 0.991 | 0.841 | 1.02 | 0.48 | 0.504 | 0.562 | 0.54 | 0.39 | 0.473 | 0.661 | 0.579 | 0.667 | 0.747 |
| NCI-H2228 | 1.05 | 0.995 | 0.937 | 0.92 | 1.08 | 0.696 | 0.729 | 1.02 | 0.707 | 0.807 | 0.2 | 0.2 | 0.208 | 0.228 | 0.187 | 1.11 | 1.1 | 1.47 | 0.764 | 1 |

Reference: the supplement of paper PMC10307832
